Laboratory results: publication PMC11325555, “Interaction of Bisphenol A and Its Analogs with Estrogen and Androgen Receptor from Atlantic Cod (Gadus morhua)” (Environmental Science & Technology, 2024)
Entries after “also recorded” stand apart in the source; their conditions may differ. Where two headings read alike, the source gives them in different places.

How the values were obtained:
[1] = target: T1, Atlantic cod estrogen receptor alpha (gmEra) LBD (Gadus morhua, UniProt U5ILH7); assay: Luciferase reporter gene assay, gmEra agonism (estrogenic activity) in transfected COS-7 cells
T1 sequence (U5ILH7 170-455): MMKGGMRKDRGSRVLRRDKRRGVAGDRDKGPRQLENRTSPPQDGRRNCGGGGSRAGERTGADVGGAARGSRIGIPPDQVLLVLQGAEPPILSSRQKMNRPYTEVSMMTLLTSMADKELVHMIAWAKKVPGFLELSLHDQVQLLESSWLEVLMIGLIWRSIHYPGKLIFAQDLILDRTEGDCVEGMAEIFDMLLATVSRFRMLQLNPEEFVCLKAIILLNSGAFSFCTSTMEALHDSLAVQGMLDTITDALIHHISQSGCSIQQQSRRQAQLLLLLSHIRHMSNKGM
Procedure: (§1) Ligand activation of gmEra and gmAra was studied with a luciferase reporter gene assay in COS-7 cells transiently transfected with the pCMX-GAL4(DBD)-gmEra(LBD) or pCMX-GAL4(DBD)-gmAra(LBD) plasmid by using the TransIT-LT1 reagent (TransIT-LT1 Transfection Reagent, Mirus). Cells were seeded into 96-well plates (5000 cells/well) and incubated for 24 h before cotransfection with the plasmid mixture (100 ng/well). The plasmid mixture contained GAL4-UAS luciferase reporter plasmid (tk-(MH100)x4 luc), the pCMX-GAL4(DBD)-gmEra(LBD) or pCMX-GAL4(DBD)-gmAra(LBD) receptor plasmids (2:1 reporter:receptor plasmid mass ratio), and a plasmid constitutively producing the β-galactosidase enzyme used for normalization of transfection efficiency (pCMV- β-Gal). […] The maximum DMSO/methanol concentrations in the exposure wells were 0.5% (v/v) in DMEM medium without phenol red (Sigma-Aldrich). After exposure, cells were lysed, and luciferase and beta-galactosidase activities were measured as luminescence and absorbance (420 nm) after the addition of luciferin and ONPG substrates, respectively, using an Enspire Multimode plate reader (PerkinElmer, Waltham, Massachusetts, USA).
Luciferase reporter gene assays were established with COS-7 cells transiently producing the LBD of gmEra (Figure S1) for evaluating the estrogenic potential of 12 bisphenols.
COS-7 cells transiently transfected with gmEra-LBD were exposed to EE2 (open circles), BPA (black circles), and 11 different BPA analogs (red squares and as indicated) at increasing concentrations. Responses are presented as mean fold activation in luciferase activity in comparison to solvent-exposed cells ± SEM from three independent experiments with three technical replicates (n = 9). The dose–response curves were created using nonlinear regression and the four parameter logistic fit in Graphpad Prism v.9. For comparison, the dose–response curve of BPA (black line) is indicated together with each individual BP tested (red line). *p < 0.05 versus solvent control by one-way ANOVA and Dunnett’s multiple comparison post hoc test.

[2] = target: T2, Atlantic cod androgen receptor alpha (gmAra) LBD (Gadus morhua, UniProt D5FIC7); assay: Luciferase reporter gene assay, gmAra antagonism (antiandrogenic activity), coexposure with 5 nM testosterone; type: cell-based
T2 sequence (D5FIC7 409-718): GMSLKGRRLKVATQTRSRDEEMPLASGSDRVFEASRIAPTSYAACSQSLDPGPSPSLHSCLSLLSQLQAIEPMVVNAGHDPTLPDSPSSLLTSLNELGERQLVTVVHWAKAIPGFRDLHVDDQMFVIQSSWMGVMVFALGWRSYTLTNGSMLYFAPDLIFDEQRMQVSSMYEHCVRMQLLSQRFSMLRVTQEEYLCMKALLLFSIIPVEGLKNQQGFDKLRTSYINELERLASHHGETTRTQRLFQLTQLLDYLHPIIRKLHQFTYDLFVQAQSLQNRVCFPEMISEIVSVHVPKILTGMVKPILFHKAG
Procedure: as §1
(§2) The dose–response curves were created using nonlinear regression and the four-parameter logistic fit in Graphpad Prism v.9. *p < 0.05 versus solvent control by ANOVA and Dunnett’s multiple comparison post hoc test.

Er [3] = system: Er; design: method as in PMID 12651187; details: carp; cited from earlier work
[4] = target: T1, Atlantic cod estrogen receptor alpha (gmEra) LBD; assay: Luciferase reporter gene assay, gmEra antagonism (antiestrogenic activity), coexposure with 3 nM EE2; type: cell-based; details: coexposure with EE2 (3 nM, EC20)
Procedure: as §1
To investigate potential antiestrogenic effects, COS-7 cells transiently expressing gmEra LBD were exposed to the 12 bisphenols in binary mixtures with a fixed concentration of EE2 (3 nM, corresponding to EC20) (Figure 2 and Table 1).
as §2

[5] = target: T2, Atlantic cod androgen receptor alpha (gmAra) LBD; assay: Luciferase reporter gene assay, gmAra agonism (androgenic activity) in transfected COS-7 cells
Procedure: as §1
Figure 3 Androgenic activity of bisphenols. COS-7 cells were transiently transfected with gmAra LBD and exposed individually to 12 bisphenol analogs at increasing concentrations. […] The dose–response curves were created using nonlinear regression and the four-parameter logistic fit in Graphpad Prism v.9. For comparison, the dose–response curve of BPA (black line) is indicated together with each individual BP tested (red line). *p < 0.05 versus solvent control by one-way ANOVA and Dunnett’s multiple comparison post hoc test.

human Era = system: human Era; design: method as in PMID 15635150; details: cited from earlier work
Er [6] = system: Er; design: method as in doi:10.11403/jset.11.133; details: medaka; cited from earlier work

- maximal fold induction ([1]; COS-7, monkey, 24 h, read-out: gmEra Emax): 19.4
- gmEra Emax ([1]; fold activation in luciferase activity vs solvent control, 24 h exposure, * = statistically significant, a = plateau not reached, highest fold activation obtained, 1440 min): 19 fold activation
- EC50 ([1]; gmEra EC50, four-parameter logistic fit, 24 h exposure): 1.9 µM
- gmEra REP50 (relative potency EC50, EC50-bisphenol A/EC50-bisphenol X) ([1]; relative to BPA): 1.0
- IC50 ([2]; gmAra IC50, in the presence of 5 nM testosterone (EC20)): 0.14 µM
- EC50 [5]: 25.7 µM
- maximal fold induction ([5]; COS-7, monkey, 24 h, read-out: gmAra Emax): 1.6
- gmAra REP50 (relative potency EC50, EC50-bisphenol A/EC50-bisphenol X) ([5]; relative to BPA): 1.0
SMILES: CC(C)(c1ccc(O)cc1)c1ccc(O)cc1 [BPA, Bisphenol A]
- effect on testosterone-mediated gmAra activity, result in words ([2]; BPs 0.003–50 μM with 5 nM testosterone): significantly decrease the testosterone-mediated Ara-activity
- EC50 (Er [3]): 26 µM
- antiestrogenic effect on gmEra, result in words [4]: did not antagonize gmEra; also recorded: no antiestrogenic effects
- EC50 (human Era): 0.63 µM
- EC50 (Er [6]): 0.59 µM
